Counter-ions that a name gives are not always drawn.
Experiments:
[1] = target: T1, human cloned dopamine D4.2 receptors (Homo sapiens, UniProt P21917, DEL265-296); test: Inhibition of the binding of [3H]YM-09151-2 to human dopamine D4 receptors; conditions: [3H]YM-09151-2 0.06 nM, membranes of CHO-cells; read-out: D4-bind. IC50
T1 construct: expressed in transfected cells; host or cells: CHO cells
T1 sequence (P21917 with tags, fused parts or gaps DEL265-296): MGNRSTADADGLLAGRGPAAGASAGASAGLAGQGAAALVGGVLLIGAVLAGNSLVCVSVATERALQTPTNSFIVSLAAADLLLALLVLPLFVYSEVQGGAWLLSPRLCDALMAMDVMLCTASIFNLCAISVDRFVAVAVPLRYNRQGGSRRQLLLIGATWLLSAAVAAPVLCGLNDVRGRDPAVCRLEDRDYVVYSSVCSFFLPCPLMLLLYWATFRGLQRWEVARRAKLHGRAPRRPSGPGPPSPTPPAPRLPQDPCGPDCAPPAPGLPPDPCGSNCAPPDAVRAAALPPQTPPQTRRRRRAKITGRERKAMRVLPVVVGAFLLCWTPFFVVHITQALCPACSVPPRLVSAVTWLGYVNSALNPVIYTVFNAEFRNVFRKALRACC
Experimental: Inhibition of the Binding of [^3H]YM-09151-2 to Human Dopamine D4 Receptors
By this method the inhibition by drugs of the binding of [^3H]YM-09151–2 (0.06 nM) to membranes of human cloned dopamine D4.2 receptors expressed in CHO-cells is determined in vitro. Method modified from NEN Life Science Products, Inc., technical data certificate PC2533-10/96.

[2] = target: T2, human cloned dopamine D3 receptors (Homo sapiens, UniProt P35462); test: Inhibition of the binding of [3H]Spiperone to human D3 receptors; conditions: [3H]Spiperone 0.3 nM, membranes of CHO-cells; for IC50: read-out: D3-bind. IC50; for inhibition at 0.1 µM: read-out: D3-bind. % inhibition of binding at 100 nM
T2 construct: expressed in transfected cells; host or cells: CHO cells
T2 sequence (P35462 whole entry): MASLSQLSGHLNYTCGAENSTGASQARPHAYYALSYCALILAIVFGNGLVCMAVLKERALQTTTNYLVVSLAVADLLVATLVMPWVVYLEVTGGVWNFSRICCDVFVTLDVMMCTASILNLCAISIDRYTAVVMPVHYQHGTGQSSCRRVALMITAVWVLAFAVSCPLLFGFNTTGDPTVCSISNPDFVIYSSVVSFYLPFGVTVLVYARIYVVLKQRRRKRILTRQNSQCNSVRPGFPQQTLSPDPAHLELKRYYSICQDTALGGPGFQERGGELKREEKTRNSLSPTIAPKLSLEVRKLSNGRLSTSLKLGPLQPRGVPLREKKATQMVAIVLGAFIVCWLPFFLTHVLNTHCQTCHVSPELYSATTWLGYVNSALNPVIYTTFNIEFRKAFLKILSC
Experimental: Inhibition of the Binding of [^3H]Spiperone to Human D3 Receptors
By this method the inhibition by drugs of the binding [^3H]Spiperone (0.3 nM) to membranes of human cloned dopamine D3 receptors expressed in CHO-cells is determined in vitro. Method modified from MacKenzie et al. Eur. J. Pharm.-Mol. Pharm. Sec. 1994, 266, 79–85.

alpha-1 receptors = test: Inhibition of binding of [3H]Prazosine to rat alpha-1 receptors; conditions: [3H]Prazosine 0.25 nM, membranes from rat brain
Experimental: Inhibition of Binding of [^3H]Prazosine to Rat Alpha-1 Receptors
By this method the inhibition by drugs of the binding of [^3H]Prazosine (0.25 nM) to alpha-1 receptors in membranes from rat brain is determined in vitro. Method modified from Hyttel et al. J. Neurochem. 1985, 44, 1615–1622.

| Compound | IC50 [1] [nM] | D3-bind. % inhibition of binding at 100 nM ([2]; 100 nM) [%] | Alpha-1 % inhibition of binding at 100 nM (alpha-1 receptors) [%] | melting point [°C] | IC50 [2] [nM] | IC50 (alpha-1 receptors) [nM] | inhibition at 0.1 µM ([2]; 100 nM) [%] |
| --- | --- | --- | --- | --- | --- | --- | --- |
| 5-[4-(2,3-Dichloro-phenyl)-piperazin-1-yl]-1-(3,4-dihydro-1H-isoquinolin-2-yl)propan-1-one [Compound 7f] | 26 | 95 | 34 |  |  |  |  |
| Clc1cccc(N2CCN(CCCCCN3CCc4ccccc43)CC2)c1Cl (as salt: hydrochloride) [Compound 2c, 1-{5-[4-(2,3-Dichlorophenyl)piperazin-1-yl]pentyl}-2,3-dihydro-1H-indole] |  |  |  | 219 to 228 |  |  |  |
| O=C1CCc2ccccc2N1CCCCN1CCN(c2cccc(Cl)c2Cl)CC1 (as salt: hydrochloride) [Compound 6, 1-{4-[4-(2,3-Dichlorophenyl)piperazin-1-yl]butyl}-3,4-dihydroquinolin-2(1H)-one] |  |  |  | 234 to 235 |  |  |  |
| O=C(CCN1CCN(c2cccc(Cl)c2Cl)CC1)N1CCc2ccccc21 [Compound 1a, 3-[4-(2,3-Dichlorophenyl)piperazin-1-yl]-1-(2,3-dihydro-1H-indol-1-yl)propan-1-one] | 3.3 |  |  |  | 100 | 59 |  |
| O=C(CCCN1CCN(c2cccc(Cl)c2Cl)CC1)N1CCc2ccccc21 [Compound 1b, 4-[4-(2,3-Dichlorophenyl)piperazin-1-yl]-1-(2,3-dihydro-1H-indol-1-yl)butan-1-one] | 2.8 |  |  |  | 3 | 1100 |  |
| O=C(CCCCN1CCN(c2cccc(Cl)c2Cl)CC1)N1CCc2ccccc21 [Compound 1c, 5-[4-(2,3-Dichlorophenyl)piperazin-1-yl]-1-(2,3-dihydro-1H-indol-1-yl)pentan-1-one] | 39 |  |  |  | 10 | 160 |  |
| O=C(CCCN1CCN(c2ccccc2Cl)CC1)N1CCc2ccccc21 [Compound 1d, 4-[4-(2-Chlorophenyl)piperazin-1-yl]-1-(2,3-dihydro-1H-indol-1-yl)butan-1-one] | 0.92 |  |  |  | 20 | 97 |  |
| O=C(CCCN1CCN(c2cccc(Cl)c2)CC1)N1CCc2ccccc21 [Compound 1e, 4-[4-(3-Chlorophenyl)piperazin-1-yl]-1-(2,3-dihydro-1H-indol-1-yl)butan-1-one] | 2.1 |  |  |  | 50 | 17 |  |
| Clc1cccc(N2CCN(CCCN3CCc4ccccc43)CC2)c1Cl [Compound 2a, 1-{3-[4-(2,3-Dichlorophenyl)piperazin-1-yl]propyl}-2,3-dihydro-1H-indole] | 1.8 |  |  |  | 31 | 68 |  |
| Clc1cccc(N2CCN(CCCCN3CCc4ccccc43)CC2)c1Cl [Compound 2b, 1-{4-[4-(2,3-Dichlorophenyl)piperazin-1-yl]butyl}-2,3-dihydro-1H-indole] | 12 |  | 10 |  | 3.1 |  |  |
| Clc1cccc(N2CCN(CCCCCN3CCc4ccccc43)CC2)c1Cl [Compound 2c, 1-{5-[4-(2,3-Dichlorophenyl)piperazin-1-yl]pentyl}-2,3-dihydro-1H-indole] | 18 |  |  |  | 22 | 190 |  |
| Clc1ccccc1N1CCN(CCCCN2CCc3ccccc32)CC1 [Compound 2d, 1-{4-[4-(2-Chlorophenyl)piperazin-1-yl]butyl}-2,3-dihydro-1H-indole] | 1.2 |  |  |  | 4 | 31 |  |
| Clc1cccc(N2CCN(CCCCN3CCc4ccccc43)CC2)c1 [Compound 2e, 1-{4-[4-(3-Chlorophenyl)piperazin-1-yl]butyl}-2,3-dihydro-1H-indole] | 1.6 |  |  |  | 17 | 40 |  |
| Clc1cccc(N2CCN(CCCCC3CCc4ccccc43)CC2)c1Cl (centres unmarked) [Compound 3, 1-(2,3-Dichlorophenyl)-4-[4-(indan-1-yl)butyl]piperazine] | 11 |  | −3 |  | 6.8 |  |  |
| Clc1ccc2c(SCCN3CCN(c4cccc(Cl)c4Cl)CC3)c[nH]c2c1 [Compound 4, 6-Chloro-3-{2-[4-(2,3-dichlorophenyl)piperazin-1-yl]ethylsulfanyl}-1H-indole] | 500 |  |  |  | 40 | 4800 |  |
| Clc1cccc(N2CCN(CCCc3c[nH]c4ccccc34)CC2)c1Cl [Compound 5a, 3-{3-[4-(2,3-Dichlorophenyl)piperazin-1-yl]propyl}-1H-indole] | 2.2 |  |  |  | 2.8 | 410 |  |
| Clc1cccc(N2CCN(CCCCc3c[nH]c4ccccc34)CC2)c1Cl [Compound 5b, 3-{4-[4-(2,3-Dichlorophenyl)piperazin-1-yl]butyl}-1H-indole] | 14 |  |  |  | 1.1 | 570 |  |
| Fc1ccc2[nH]cc(CCCN3CCN(c4cccc(Cl)c4Cl)CC3)c2c1 [Compound 5c, 3-{3-[4-(2,3-Dichlorophenyl)piperazin-1-yl]propyl}-5-fluoro-1H-indole] | 3.9 |  |  |  | 6.8 | 960 |  |
| Fc1ccc2[nH]cc(CCCCN3CCN(c4cccc(Cl)c4Cl)CC3)c2c1 [Compound 5d, 3-{4-[4-(2,3-Dichlorophenyl)piperazin-1-yl]butyl}-5-fluoro-1H-indole] | 8.6 |  |  |  | 1 | 720 |  |
| Clc1ccc2c(CCCN3CCN(c4cccc(Cl)c4Cl)CC3)c[nH]c2c1 [Compound 5e, 6-Chloro-3-{3-[4-(2,3-dichlorophenyl)piperazin-1-yl]propyl}-1H-indole] | 27 |  |  |  |  | 470 | 93 |
| O=C1CCc2ccccc2N1CCCCN1CCN(c2cccc(Cl)c2Cl)CC1 [Compound 6, 1-{4-[4-(2,3-Dichlorophenyl)piperazin-1-yl]butyl}-3,4-dihydroquinolin-2(1H)-one] | 16 |  |  |  | 1.8 | 43 |  |
| O=C(CCN1CCN(c2cccc(Cl)c2Cl)CC1)N1CCc2cc(F)ccc21 [Compound 7a, 3-[4-(2,3-Dichlorophenyl)piperazin-1-yl]-1-(5-fluoro-2,3-dihydro-1H-indol-1-yl)propan-1-one] | 25 |  | 38 |  |  |  | 73 |
| O=C(CCCN1CCN(c2cccc(Cl)c2Cl)CC1)N1CCc2cc(F)ccc21 [Compound 7b, 4-[4-(2,3-Dichlorophenyl)piperazin-1-yl]-1-(5-fluoro-2,3-dihydro-1H-indol-1-yl)butan-1-one] | 53 |  | 6 |  |  |  | 65 |
| O=C(CCCCN1CCN(c2cccc(Cl)c2Cl)CC1)N1CCc2cc(F)ccc21 [Compound 7c, 5-[4-(2,3-Dichlorophenyl)piperazin-1-yl]-1-(5-fluoro-2,3-dihydro-1H-indol-1-yl)pentan-1-one] | 61 |  | 45 |  |  |  | 92 |
| O=C(CCN1CCN(c2cccc(Cl)c2Cl)CC1)N1CCc2ccccc2C1 [Compound 7d, 3-[4-(2,3-Dichlorophenyl)piperazin-1-yl]-1-(3,4-dihydro-1H-isoquinolin-2-yl)-propan-1-one] | 6 |  | 44 |  |  |  | 85 |
| O=C(CCCN1CCN(c2cccc(Cl)c2Cl)CC1)N1CCc2ccccc2C1 [Compound 7e] | 10 |  | 31 |  |  |  | 94 |
| O=C(CCN1CCN(c2ccccc2Cl)CC1)N1CCc2ccccc2C1 [Compound 8k, 3-[4-(2-Chlorophenyl)piperazin-1-yl]-1-(3,4-dihydro-1H-isoquinolin-2-yl)-propan-1-one] | 8 |  | 92 |  |  |  | 73 |
| O=C(CCCN1CCN(c2ccccc2Cl)CC1)N1CCc2ccccc2C1 [Compound 8l, 4-[4-(2-Chlorophenyl)piperazin-1-yl]-1-(3,4-dihydro-1H-isoquinolin-2-yl)-butan-1-one] | 4 |  | 74 |  |  |  | 88 |
| O=C(CCCN1CCN(c2ccccc2F)CC1)N1CCc2ccccc2C1 [Compound 9k, 1-(3,4-Dihydro-1H-isoquinolin-2-yl)-4-[4-(2-fluoro-phenyl)-piperazin-1-yl]-butan-1-one] | 9 |  | 69 |  |  |  | 92 |

Source: US7074796B2 (H. Lundbeck A/S, priority 1999, dated 2006)
